The target in one assay is BRD4-1 (GST) (Homo sapiens (Human), UniProt O60885). In words: Inhibitory action on binding of BRD4 protein and acetylated histone H4, Test Method 2 (TR-FRET). Conditions: Test Method 2, BRD4-1 (GST) and acetylated histone H4, TR-FRET. Here is the method: The inhibitory action of the compound of the present invention on the binding of BRD4 protein and a ligand thereof (acetylated histone H4) was evaluated by the time-resolved fluorescence resonance energy transfer (TR-FRET) method using EPIgeneous™ Binding Domain Kit A (Cisbio), BRD4-1 (GST) (Reaction Biology Corp) and [Lys(Ac)5/8/12/16]-Histone H4(1-21)-GGK (Biotin) (Eurogentec). In this experiment, (+)-JQ1 known to have an inhibitory activity on the binding of BRD4 protein and acetylated histone H4 therefor was used as a positive control drug. A test compound dissolved DMSO was diluted with attached Diluent Buffer, added to a 384 well white plate, and BRD4-1 (GST) and [Lys(Ac)5/8/12/16]-Histone H4(1-21)-GGK (Biotin) were further added. Thereafter, Streptavidin-d2 conjugate and Anti-GST-Eu^3+ Cryptate Conjugate were added and the cells were incubated at room temperature for 3 hr. The binding amount of the BRD4 protein and acetylated histone H4 was measured as the fluorescence intensity (excitation: 314 nm/emission: 620 nm and excitation: 314 nm/emission: 665 nm). […] It was calculated from the straight line connecting the degradation rate at two points enclosing the 50% fluorescence intensity and the compound concentration.
For orientation: TR-FRET usually uses a lanthanide donor and a delayed reading to cut background.

Assay [1] deals with human uterine sarcoma MES-SA cell. In words: Cytotoxic action on cancer cells (WST-8, 96 hr). The format is cell-based. The note with it: 96 hr culture. A digest of the protocol: (§1)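 Cells in 10% FBS/RPMI1640 were seeded, cultured overnight at 37 °C with 5% CO2, then exposed to compound for 96 hr. Viable cells were measured with WST-8 against compound-free controls. IC50 was interpolated linearly between the two concentrations bracketing 50% survival.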
(Tetrazolium dyes change colour on reduction, which living cells bring about.)

The subject of assay [2] is human colorectal cancer HCT116 cell. In words: Cytotoxic action on cancer cells (WST-8, 96 hr). In kind it is cell-based. Conditions: HCT-116, 96 hr culture. Put shortly:
as §1

The subject of assay [3] is human ovarian cancer A2780 cell. In words: Cytotoxic action on cancer cells (WST-8, 96 hr). The format is cell-based. Conditions: 96 hr culture. A digest of the protocol: as §1
Assay [4] has as its system human liver cancer Hep G2 cell. In words: Cytotoxic action on cancer cells (WST-8, 96 hr). In kind it is cell-based. The note with it: HepG2, 96 hr culture. A digest of the protocol:
as §1

Assay [5] deals with human T-cell leukemia Jurkat cells. In words: Cytotoxic action on cancer cells (WST-8, 96 hr). The format is cell-based. The note with it: 96 hr culture. Put shortly: as §1
Assay [6] concerns human castration-resistant prostate cancer PC-3 cell. In words: Cytotoxic action on cancer cells (WST-8, 96 hr). The format is cell-based. The note with it: PC-3 cells (printed P0-3 in table), 96 hr culture. A digest of the protocol:
as §1

For assay [7], the system named is human small cell lung cancer NCI-H82 cell. In words: Cytotoxic action on cancer cells (WST-8, 96 hr). In kind it is cell-based. Conditions: 96 hr culture. Put shortly: as §1
The subject of assay [8] is human bladder cancer 5637 cell. In words: Cytotoxic action on cancer cells (WST-8, 96 hr). In kind it is cell-based. The note with it: 5637 cells, 96 hr culture. A digest of the protocol:
as §1

The next assay concerns the target BRD4 bromodomain 1 (Homo sapiens (Human), UniProt O60885). In words: Inhibitory action on binding of BRD4 protein and ligand, Test Method 1 (TR-FRET, BRD4 bromodomain 1 TR-FRET Assay Kit). The note with it: Test Method 1, BRD4 bromodomain 1 and ligand. Here is the method:
The inhibitory action of the compound of the present invention on the binding of BRD4 protein and a ligand thereof was evaluated by the time-resolved fluorescence resonance energy transfer (TR-FRET) method using BRD4 bromodomain 1 TR-FRET Assay Kit (Cayman). In this experiment, (+)-JQ1 known to have an inhibitory activity on the binding of BRD4 protein and a ligand therefor was used as a positive control drug. A test compound dissolved in DMSO was diluted with TR-FRET Assay Buffer, added to a 384 well black plate, BRD4 bromodomain 1 Europium Chelete was further added and the cells were incubated at room temperature for 15 min. Thereafter, BRD4 bromodomain 1 Ligand/APC Acceptor Mixture was added and the cells were incubated at room temperature for 1 hr. The binding amount of the BRD4 protein and ligand was measured as fluorescence intensity (excitation: 340 nm/emission: 620 nm and excitation: 340 nm/emission: 670 nm).
It was calculated from the straight line connecting the degradation rate at two points enclosing the 50% fluorescence intensity and the compound concentration.

Experimental findings from US11542273B2, “Amide compound having bet proteolysis-inducing action and medicinal application thereof” (MITSUBISHI TANABE PHARMA CORPORATION, priority 2018, dated 2023) are described below.

The structures appear in SMILES notation.

In general, IC50 refers to the concentration that inhibits the measured activity by half. The low end stands for greater potency in that assay, the high end for weaker potency in that assay.

With `COC(=O)C[C@@H]1N=C(c2ccc(-c3ccc(C(=O)N[C@H](C(=O)N4C[C@H](O)C[C@H]4C(=O)N[C@@H](C)c4ccc(-c5scnc5C)cc4)C(C)(C)C)c(Cl)c3)cc2)c2c(sc(C)c2C)-n2c(C)nnc21` [Example 157, methyl {(6S)-4-[3′-chloro-4′-({(2S)-1-[(2S,4R)-4-hydroxy-2-({(1S)-1-[4-(4-methyl-1,3-thiazol-5-yl)phenyl]ethyl}carbamoyl)pyrrolidin-1-yl]-3,3-dimethyl-1-oxobutan-2-yl}carbamoyl)[1,1′-biphenyl]-4-yl]-2,3,9-trimethyl-6H-thieno[3,2-f][1,2,4]triazolo[4,3-a][1,4]diazepin-6-yl}acetate], the IC50 is 61 nM at BRD4-1 (GST); 1.7 nM in [1]; 4.5 nM in [2]; 0.15 nM in assay [3]; 12 nM in [4]; 0.46 nM in assay [5]. For the same molecule, the IC50 in assay [6] was found to be 0.41 nM; in [7], 4.5 nM; in assay [8] it was 0.33 nM.
In the case of `COC(=O)C[C@@H]1N=C(c2ccc(-c3ccc(OCC(=O)N[C@H](C(=O)N4C[C@H](O)C[C@H]4C(=O)N[C@@H](C)c4ccc(-c5scnc5C)cc4)C(C)(C)C)c(C#N)c3)cc2)c2c(sc(C)c2C)-n2c(C)nnc21` [Example 9, methyl [(6S)-4-{3′-cyano-4′-[2-({(2S)-1-[(2S,4R)-4-hydroxy-2-({(1S)-1-[4-(4-methyl-1,3-thiazol-5-yl)phenyl]ethyl}carbamoyl)pyrrolidin-1-yl]-3,3-dimethyl-1-oxobutan-2-yl}amino)-2-oxoethoxy][1,1′-biphenyl]-4-yl}-2,3,9-trimethyl-6H-thieno[3,2-f][1,2,4]triazolo[4,3-a][1,4]diazepin-6-yl]acetate], the IC50 in [1] was found to be 2.6 nM; in [2], 4.7 nM; in [3], 0.16 nM; in assay [4], 33 nM; in assay [5], 1.2 nM; in assay [6], 1 nM. Besides, the IC50 in assay [7] is 15 nM; in [8], 0.45 nM; at BRD4 bromodomain 1, 47 nM.
As for `COC(=O)C[C@@H]1N=C(c2ccc(N3CC[C@@H](Oc4ccc5oc(C(=O)N[C@H](C(=O)N6C[C@H](O)C[C@H]6C(=O)N[C@@H](C)c6ccc(-c7scnc7C)cc6)C(C)(C)C)cc5c4)C3)cc2)c2c(sc(C)c2C)-n2c(C)nnc21` [Example 142, methyl [(6S)-4-{4-[(3R)-3-{[2-({(2S)-1-[(2S,4R)-4-hydroxy-2-({(1S)-1-[4-(4-methyl-1,3-thiazol-5-yl)phenyl]ethyl}carbamoyl)pyrrolidin-1-yl]-3,3-dimethyl-1-oxobutan-2-yl}carbamoyl)-1-benzofuran-5-yl]oxy}pyrrolidin-1-yl]phenyl}-2,3,9-trimethyl-6H-thieno[3,2-f][1,2,4]triazolo[4,3-a][1,4]diazepin-6-yl]acetate], the IC50 was 110 nM at BRD4-1 (GST); 1.6 nM in assay [1]; 3.9 nM in assay [2]; 0.27 nM in assay [3]; 7.4 nM in [4]; 0.36 nM in assay [5]. In addition, the IC50 in assay [6] is 0.34 nM; in assay [7], 5.9 nM; in assay [8], 0.34 nM.
